Data on three compounds can be found in article PMC7943729, “Cell-Free DNA Promotes Thrombin Autolysis and Generation of Thrombin-Derived C-Terminal Fragments” (Frontiers in Immunology, 2021).

Series [1] deals with T1, human thrombin (Homo sapiens, UniProt P00734).
T1 construct: purchased Innovative Research USA
The series can be described thus: Thrombin autolysis determination by western blot. It is filed as biochemical. As for the experimental part: 10 µl of citrate plasma was added to increasing concentration of DNA (6.25, 12.5, 25, and 50 µg/ml) resuspended in 10 mM Tris, pH 7.4 (total volume of 20 µl). Following an hour pre-incubation at 37 °C, 2.5 mM CaCl2 was added to samples and further incubated for 1 hour at 37 °C. After incubation, samples were boiled for 15 min with sample buffer and were analyzed by SDS-PAGE using Novex 10–20% Tris Tricine precast gels. Post electrophoresis, the gel was transferred to a PVDF membrane and blocked with 5% milk for an hour before western blotting. For detection of C-terminal thrombin fragments, overnight incubation of the blots was performed with polyclonal antibodies recognizing the thrombin C-terminal peptide VFR17 ([…]) in 1:5,000 dilution at 4 °C. […]
DNA dependent thrombin autolysis was analyzed by incubating 0.4 µg of human thrombin (Innovative Research USA) in the presence or absence of equal weight ratio (1:1) of DNA in a total volume of 10 µl for different time points (1, 2, 4, and 6 h). […] Thrombin autolysis inhibition was analyzed using 0.4 µg of heat inactivated thrombin (preboiled for 10 mins at 95 °C) incubated with equal weight ratio (1:1) of DNA for extended time of 6 h. […] In all cases, after the incubation at 37 °C, samples were boiled for 10 min in sample buffer and analyzed by western blotting as mentioned above.
(In general: A western blot detects proteins with antibodies after separation by electrophoresis.)

Another series deals with genomic DNA. Description: DNA gel shift assay (agarose gel mobility shift). Format: binding, human. Conditions: 200 ng gDNA (20 µg/ml), 10-200 ng protein or peptide, 10 mM Tris pH 7.4, 1 h 37 °C, 0.8% agarose gel, SYBR Safe; n = 3. As for the experimental part:
The DNA used for agarose gel and western blot analysis was extracted from cultured human keratinocytes (HaCaT) cells using E.Z.N.A. DNA/RNA Isolation kit (Omega Bio-Tek USA) or E. coli DH5α plasmid DNA (pUC19) using Qiagen plasmid purification kits (Qiagen USA) according to the manufacturer’s protocol.
Following this, the samples were analyzed by gel electrophoresis on a 0.8% agarose (w/v) gel in 1X Tris acetate-EDTA (TAE) buffer with SYBR Safe and visualized with the ChemiDoc Imaging System (Bio-Rad, USA).
For orientation: Mobility shift assays separate free from complexed probe on a gel.

In series [2] the target is T2, human neutrophil elastase (Homo sapiens, UniProt P08246).
T2 sequence (P08246 30-267): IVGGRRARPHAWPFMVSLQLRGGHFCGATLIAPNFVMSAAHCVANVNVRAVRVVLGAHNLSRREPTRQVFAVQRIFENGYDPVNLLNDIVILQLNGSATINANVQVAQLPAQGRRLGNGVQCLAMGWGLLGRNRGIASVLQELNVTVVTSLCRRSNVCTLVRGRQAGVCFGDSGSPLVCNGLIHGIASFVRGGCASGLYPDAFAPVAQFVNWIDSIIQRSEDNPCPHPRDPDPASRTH
The series can be described thus: Protease protection assay. It is filed as in vitro ADME. Conditions: NE 1:30, 37 °C, western blot. The procedure: Thrombin or GKY25 (0.4 µg) was incubated with DNA (w/w ratio = 1:1) in 10 mM Tris, pH 7.4 for 4 h, followed by addition of neutrophil elastase at enzyme: substrate ratio of 1:30 and incubated for various time points (1, 2, and 3 h). Post incubation, samples were boiled for 3 min to inhibit the reaction and further analyzed by Tricine SDS-PAGE as described above.

Series [3] addresses T1, human thrombin. As to conditions: thrombin autolysis without DNA; cited from earlier work. From the text:
Previous studies have shown that the rate of autolysis increases with concentration of thrombin, pH, temperature and concentration of monovalent cations ([31], [32]).

Take `O=S(=O)(F)Cc1ccccc1` [PMSF]: at human thrombin [1] (0.4 µg thrombin, DNA 1:1 w/w, 4 h 37 °C, PMSF 1 mM, protease inhibitor cocktail 1X), the “inhibition of DNA-induced TCP formation” value was “abrogated the formation of TCPs”.

For the compound heparin, at human thrombin [1] (0.4 µg human thrombin, 37 °C, western blot with anti-VFR17, DNA 1:1 for 1-6 h, NETs 4 h, heparin 1:0.5 and 1:1 for 1 h), the “induction of thrombin fragmentation / TCP formation” value is reported as “did not induce thrombin fragmentation or TCP formation”.

Consider thrombin, for which, in the series on genomic DNA, the “amount giving complete retardation of DNA” value is given as at least 160 ng and the “amount giving reduced DNA migration” value is 40 ng. Further, the “thrombin fragments after neutrophil elastase in the presence of DNA” value in series [2] (0.4 µg thrombin with gDNA 1:1 w/w, increasing incubation time 60-180 min) is “a higher signal intensity of the 3 kDa TCP”. The “cleavage of thrombin by neutrophil elastase without DNA” value in series [2] (0.4 µg thrombin, control lanes without DNA, 60-180 min) is recorded as “cleaved thrombin to release multiple TCPs”. The “time for complete autolytic conversion to γ-thrombin” value in the series with human thrombin [3] is recorded as about 144 h.
